The test system of test [1] is HepG2. In words: Recovery of mitochondrial activity in 40% FBS-induced steatosis human HepG2 cells model assessed as increase in number of mitochondria incubated in steatosis inducing DMEM with 40% FBS medium for 24 hrs followed by compound treatment by MitoTracker Green based fluorescence analysis. It counts as functional, cell-based. Conditions: dose 0.2-5 µM.
Test [2] concerns Rattus norvegicus. In words: Hepatoprotective activity against high fat diet-fed NAFLD Sprague-Dawley rat model assessed as less ballooning degeneration and smaller fatty droplets in hepatocytes at 12.3 to 61.4 mg/kg, IG administered via gavage for 4 weeks by Hematoxylin-Eosin staining based analysis. It counts as functional, organism-based. Conditions: dose 12.3-61.4 mg/kg.
Test [3] deals with Rattus norvegicus. Description: Hepatoprotective activity against high fat diet-fed NAFLD Sprague-Dawley rat model assessed as increase in serum GSH level administered intragastrically via gavage for 4 weeks. The format is functional, organism-based. Conditions: dose 12.3-61.4 mg/kg, route ig.
For test [4], the system named is Rattus norvegicus. Description: Hepatoprotective activity against high fat diet-fed NAFLD Sprague-Dawley rat model assessed as decrease in serum AKP level administered intragastrically via gavage for 4 weeks. The format is functional, organism-based. The following applies: dose 12.3-61.4 mg/kg, route ig.
In test [5] the test system is HepG2. Description: Inhibition of mitochondrial membrane potential dissipation in 40% FBS-induced steatosis human HepG2 cells model assessed as increase in mitochondrial membrane potential incubated in steatosis inducing DMEM with 40% FBS medium for 24 hrs followed by compound treatment by JC-1 staining based fluorescence microscopy. The following applies: Mitochondria, dose 0.2-5 µM. The format is functional, cell-based.

In test [6] the test system is HepG2. Description: Induction of mitochondrial biogenesis in human HepG2 cells assessed as PGC1alpha protein expression incubated for 24 hrs in presence of SIRT1 inhibitor, EX527 by western blot analysis. It counts as functional, cell-based.
Test [7] deals with HepG2. Description: Inhibition of liver injury in 40% FBS-induced steatosis human HepG2 cells model assessed as decrease in ALT level at 0.2 to 5 uM incubated with compound for 24 hrs followed by replacement with steatosis inducing DMEM with 40% FBS medium. The format is functional, cell-based. Conditions: dose 0.2-5 µM.
In test [8] the test system is HepG2. Description: Induction of mitochondrial biogenesis in human HepG2 cells assessed as NRF1 protein expression incubated for 24 hrs in presence of SIRT1 inhibitor, EX527 by western blot analysis. The format is functional, cell-based.
The test system of test [9] is Rattus norvegicus. In words: Hepatoprotective activity against high fat diet-fed NAFLD Sprague-Dawley rat model assessed as increase in serum SOD level administered intragastrically via gavage for 4 weeks. The format is functional, organism-based. Conditions: dose 12.3-61.4 mg/kg, route ig.
Test [10] has as its system HepG2. Description: Inhibition of liver injury in 40% FBS-induced steatosis human HepG2 cells model assessed as decrease in GDH level at 0.2 to 5 uM incubated with compound for 24 hrs followed by replacement with steatosis inducing DMEM with 40% FBS medium. The following applies: dose 0.2-5 µM. It counts as functional, cell-based.
Test [11] concerns HepG2. In words: Recovery of mitochondrial biogenesis in 40% FBS-induced steatosis human HepG2 cells model assessed as increase in SIRT1 protein expression incubated for 24 hrs by western blot analysis. The format is functional, cell-based. The following applies: dose 0.2-5 µM.
Test [12] has as its system HepG2. In words: Recovery of energy production in 40% FBS-induced steatosis human HepG2 cells model assessed as upregulation of mitochondrial ATP production incubated with compound for 24 hrs followed by replacement with steatosis inducing DMEM with 40% FBS medium by luciferase based assay. The format is functional, cell-based. Conditions: Mitochondria, dose 0.2-5 µM.

The next test deals with Mitochondria. In words: Inhibition of mitochondrial dysfunction in 40% FBS-induced steatosis human HepG2 cells model assessed as decrease in lipid vesicle droplets at 5 uM incubated for 24 hrs by transmission electron microscopy. The format is functional.
Test [13] deals with HepG2. Description: Induction of mitochondrial biogenesis in human HepG2 cells assessed as TFAM protein expression incubated for 24 hrs in presence of SIRT1 inhibitor, EX527 by western blot analysis. It counts as functional, cell-based.
In test [14] the test system is HepG2. In words: Recovery of mitochondrial biogenesis in 40% FBS-induced steatosis human HepG2 cells model assessed as increase in NRF1 mRNA expression incubated for 24 hrs by qRT-PCR analysis. It counts as functional, cell-based. Conditions: dose 0.2-5 µM.
Test [15] deals with Rattus norvegicus. Description: Hepatoprotective activity against high fat diet-fed NAFLD Sprague-Dawley rat model assessed as decrease in serum total cholesterol content administered intragastrically via gavage for 4 weeks. The following applies: dose 12.3-61.4 mg/kg, route ig. It counts as functional, organism-based.
In test [16] the test system is HepG2. Description: Inhibition of lipid toxicity in 40% FBS-induced steatosis human HepG2 cells model assessed as decrease in triglyceride content at 0.2 to 5 uM incubated with compound for 24 hrs followed by replacement with steatosis inducing DMEM with 40% FBS medium. It counts as functional, cell-based. The following applies: dose 0.2-5 µM.
The test system of test [17] is HepG2. Description: Inhibition of liver injury in 40% FBS-induced steatosis human HepG2 cells model assessed as increase in liver protection index by measuring increase in GSH level at 0.2 to 5 uM incubated with compound for 24 hrs followed by replacement with steatosis inducing DMEM with 40% FBS medium. It counts as functional, cell-based. The following applies: dose 0.2-5 µM.

The test system of test [18] is HepG2. In words: Recovery of mitochondrial biogenesis in 40% FBS-induced steatosis human HepG2 cells model assessed as increase in mitochondrial ND6 protein expression incubated for 24 hrs by western blot analysis. It counts as functional, cell-based. Conditions: dose 0.2-5 µM.
In test [19] the test system is HepG2. Description: Recovery of mitochondrial biogenesis in 40% FBS-induced steatosis human HepG2 cells model assessed as increase in SIRT1 mRNA expression incubated for 24 hrs by qRT-PCR analysis. Conditions: dose 0.2-5 µM. The format is functional, cell-based.
Test [20] has as its system HepG2. In words: Inhibition of liver injury in 40% FBS-induced steatosis human HepG2 cells model assessed as decrease in GDH level at 0.2 to 5 uM incubated in steatosis inducing DMEM with 40% FBS medium for 24 hrs followed by compound treatment. It counts as functional, cell-based. Conditions: dose 0.2-5 µM.
For test [21], the target named is T1, NAD-dependent protein deacetylase sirtuin-1 (Homo sapiens) (UniProt Q96EB6).
T1 sequence (whole entry): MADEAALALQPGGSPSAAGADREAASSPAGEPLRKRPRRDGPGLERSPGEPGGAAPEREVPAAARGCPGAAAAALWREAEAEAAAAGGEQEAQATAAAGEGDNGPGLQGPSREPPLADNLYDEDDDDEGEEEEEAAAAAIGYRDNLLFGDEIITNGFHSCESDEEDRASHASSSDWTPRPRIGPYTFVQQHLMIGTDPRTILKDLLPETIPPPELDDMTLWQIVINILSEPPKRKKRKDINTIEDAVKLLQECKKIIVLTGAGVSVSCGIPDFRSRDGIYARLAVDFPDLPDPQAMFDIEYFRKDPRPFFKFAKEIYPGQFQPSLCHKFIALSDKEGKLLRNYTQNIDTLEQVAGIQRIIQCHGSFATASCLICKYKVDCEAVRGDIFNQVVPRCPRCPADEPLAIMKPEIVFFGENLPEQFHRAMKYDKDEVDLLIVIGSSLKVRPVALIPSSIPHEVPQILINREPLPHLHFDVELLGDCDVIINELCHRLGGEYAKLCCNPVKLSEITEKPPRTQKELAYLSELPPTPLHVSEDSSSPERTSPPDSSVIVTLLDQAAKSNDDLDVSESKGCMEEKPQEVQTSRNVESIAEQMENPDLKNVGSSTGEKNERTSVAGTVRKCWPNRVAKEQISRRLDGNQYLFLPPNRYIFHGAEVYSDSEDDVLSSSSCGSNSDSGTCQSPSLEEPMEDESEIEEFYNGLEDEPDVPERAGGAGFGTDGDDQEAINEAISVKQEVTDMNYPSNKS
In words: (§1) Binding affinity to SIRT1 (unknown origin) by surface plasmon resonance assay. Conditions: filed as activator.

In test [22] the target is T2, NAD-dependent protein deacetylase sirtuin-1 (Homo sapiens, UniProt Q96EB6).
T2 sequence (Q96EB6 whole entry): T1 sequence (whole entry)
The description is as §1.

Test [23] concerns HepG2. In words: Recovery of mitochondrial biogenesis in 40% FBS-induced steatosis human HepG2 cells model assessed as increase in PGC1alpha protein expression incubated for 24 hrs by western blot analysis. The following applies: dose 0.2-5 µM. The format is functional, cell-based.

pKd: −log10 of the molar value. Activity calls are given as the source filed them. The calls are words filed in the database; no cut-off is given here.

Regarding `CC(C)(C)c1ccc(C(=O)c2ccc(O)c(O)c2)cc1`, the Activity entry in the test on HepG2 [1], with HepG2 [11], in the test on HepG2 [12], in the test with HepG2 [14], in the test on Rattus norvegicus [15] and in the test with HepG2 [18] was “Dose-Dependent Effect” throughout. In addition, the Activity entry (in the test on HepG2 [19]; in [21]; with HepG2 [23]) was “Dose-Dependent Effect” throughout. The outcome in the test with Rattus norvegicus [2], with Rattus norvegicus [3], in the test on Rattus norvegicus [4] and with Rattus norvegicus [9] was Active. The inhibition entry with HepG2 [5] was “Dose-Dependent Effect”. For the same compound, the outcome with HepG2 [6], with HepG2 [8] and with HepG2 [13] was inactive. For the same compound, the inhibition entry in the test on HepG2 [7], in the test on HepG2 [10], with Mitochondria, in the test on HepG2 [16], with HepG2 [17] and in the test on HepG2 [20] was “Active” each time. The compound also gave a pKd in test [22] of 4.11.

These data come from ChEMBL document CHEMBL5537110, “SIRT1-dependent mitochondrial biogenesis supports therapeutic effects of 4-butyl-polyhydroxybenzophenone compounds against NAFLD” (Eur J Med Chem, 2023).
